Data as given in US20160243168A1, “ADOPTIVE CELL TRANSFER METHODS” (Cantex Pharmaceuticals, Inc., priority 2015, published 2016).
Read-outs that look alike come from different tables or passages of the source.

Assays:
anticoagulant activity = test: USP anticoagulant assay; type: biochemical; conditions: seven serial 1.2 kg batches
Xa [1] = test: anti-Xa activity assay (plasma treated with Russell viper venom); type: biochemical; conditions: seven serial 1.2 kg batches
Text: Another measure of ODSH's anticoagulant activity is its anti-Xa activity which can be determined in an assay carried out using plasma treated with Russell viper venom.

[2] = test system: patients with newly diagnosed acute myeloid leukemia (AML); test: single arm open-label clinical study, induction chemotherapy plus ODSH; type: in vivo, human
Description: A single arm open-label clinical study was conducted at multiple trial sites (University of Utah, Georgia Regents University, and Medical University of South Carolina) in patients with newly diagnosed acute myeloid leukemia (AML), seeking to confirm that ODSH could accelerate platelet and white blood cell (WBC) recovery in patients receiving induction chemotherapy with a regimen known to have myelosuppressive side effects.
All patients received the following standard (“7+3”) induction regimen, • Idarubicin (12 mg/m^2/day) by short intravenous infusion on Days 1, 2, and 3; and • Cytarabine (100 mg/m^2) as a continuous intravenous infusion over 24 hours (Days 1 through 7).
All patients also received ODSH as an intravenous bolus immediately after the idarubicin dose on Day 1, at a dose of 4 mg/kg, followed by a continuous intravenous infusion at a dose of 0.25 mg/kg/hr for a total of 7 days (Days 1 through 7).
Twelve patients were enrolled. The median age was 56 (range 22-74). Based on cytogenetic, molecular, or antecedent hematologic disorder, 9 of 12 patients fell into the intermediate or poor risk categories. […] Complete remission at the end of the induction cycle was assessed using International Working Group (IWG) criteria (see, e.g., Cheson et al., J. Clin. Oncol. 21:4642 (2003)). […]

IIa = IIa (Homo sapiens, UniProt P00734+P01008); test: anti-IIa activity assay; type: biochemical; conditions: seven serial 1.2 kg batches
[3] = target: T1, binding of CXCL12 (SDF-1) to CXCR4 (Homo sapiens, UniProt P48061); test: in vitro inhibition assay of CXCL12 binding to CXCR4 (plate ELISA); conditions: recombinant human CXCL12 coated plate, recombinant CXCR4, absorbance 450 nm
T1 construct: purchased R&D Systems (CXCL12); Abnova (CXCR4)
T1 sequence (P48061 22-89 limits assumed): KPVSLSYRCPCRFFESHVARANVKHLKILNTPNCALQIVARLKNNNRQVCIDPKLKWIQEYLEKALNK
Description: Polyvinyl 96-well high bind microplates (Corning Life Sciences, Corning, N.Y.) were coated with 0.5 μg/well of recombinant human CXCL12 (R&D Systems, Minneapolis, Minn.). Plates were incubated overnight at 4° C. and washed three times with PBS-0.05% Tween-20 (PBST). Separately, a constant amount of recombinant CXCR4 (Abnova, Taipei, Taiwan, 100 μL containing 0.8 μg/mL in PBST-0.1% BSA) was incubated with an equal volume of serially diluted ODSH (0.001-1,000 μg/mL in PBST-BSA) overnight at 4° C. The following day, 50 μL of CXCR4-ODSH mix was transferred to each respective CXCL12-coated well and incubated at 37° C. for 2 h. Wells were then washed four times with PBST. To detect bound CXCR4, 50 μL of a mouse anti-human CXCR4 antibody (R&D Systems, Minneapolis, Minn.) (1 μg/mL, in PBST) was added to each well, the mixture was incubated for 1 h at room temperature, and the wells were washed again four times with PBST. Horse-radish peroxidase-conjugated secondary antibody (R&D Systems, Minneapolis, Minn.) (50 μL per well) was added, wells were incubated for 1 h at room temperature, and then washed once with PBST. […] Absorbance at 450 nm was read using an automated microplate reader. IC50 values were determined from the plot of absorbance values vs. concentrations of ODSH.

bone marrow cells = test: serial bone marrow biopsies in the AML trial; type: in vivo, human
Text: Bone marrow biopsies were obtained in the AML trial described in Example 1.
FIGS. 2A-2C are photomicrographs of biopsies from one of the patients.

Xa [4] = conditions: Rao et al. 2010; cited from earlier work

Substance | USP anticoagulant activity (anticoagulant activity) | anti-Xa activity (Xa [1]) | myelosuppressive side effects of the idarubicin+cytarabine regimen ([2]; AML patients) | Complete response with first induction cycle ([2]; current study, n = 12, morphologic complete remission by IWG criteria) | anti-IIa activity (IIa) | IC50 for inhibition of binding of CXCL12 (SDF-1) to CXCR4 [3] | bone marrow biopsy appearance (bone marrow cells; Day 14 of the induction cycle, one patient) | bone marrow biopsy appearance (bone marrow cells; Day 28, one patient) | anti-Xa activity (Xa [4])
2-O, 3-O desulfated heparin [ODSH] | 7±0.3 U/mg | 1.9±0.1 U/mg | significantly attenuated | 92% | 1.2±0.1 U/mg | 0.010 µg/mL | unexpected and significant depletion of normal bone marrow cells | no evidence of leukemia and restoration of normal bone marrow appearance and function | –
unfractionated heparin [reference compound] | 165-190 U/mg | 165-190 U/mg | – | – | 165-190 U/mg | – | – | – | 165-190 U/mg
